# Test results reported in PubChem BioAssay AID1626 (SRMLSC, 2009).
# System: M. tuberculosis H37Rv growth inhibition
# Experiment: M. tuberculosis H37Rv growth inhibitors, H37Rv strain (AID 1626)
# Settings: for IC90: measured here: IC90 against H37Rv; for CC50: measured here: Vero cell cytotoxicity
SMILES,IC50,IC90,CC50
O=C(CNC(=O)/C(=C\c1ccc(Br)cc1)NC(=O)c1ccccc1)OCc1ccccc1,1.92 µM,3.33 µM,13 µM
Nc1ccc2c(c1)oc1ccccc12,1.96 µM,> 100 µM,–
CCCOC(=O)c1ccc(NC(=O)C(=O)NCC2CCCO2)cc1 (stereo not given),38.7 µM,> 100 µM,–
O=C(/C=C/c1ccccc1)Oc1cccc2cccnc12,7.94 µM,9.54 µM,37.2 µM
CC(C)(C)c1ccc(OCCCC(=O)NC2=NCCS2)cc1,11.8 µM,> 100 µM,> 40 µM
Cc1ccc(S(=O)(=O)CCc2nnc(NC(=O)c3ccccn3)s2)cc1,–,–,38 µM
O=C(C=C=Nc1ccccc1)C(=O)N=C=Cc1ccccc1,16.4 µM,25 µM,22.8 µM
O=C(NC1CCCCCCC1)c1ccccc1-c1ccccc1,57.1 µM,> 100 µM,–
S=c1[nH]c2ccc3ccccc3c2[nH]1,23.7 µM,> 100 µM,> 40 µM
CCSc1nnc(NC(=O)c2ccccn2)s1,0.315 µM,0.466 µM,8.14 µM
CN1CCN(c2oc(COc3ccc(-c4ccccc4)cc3)nc2C#N)CC1,15.4 µM,28.7 µM,> 40 µM
COc1cc(/C=C/C(=O)c2ccc(F)cc2)cc(OC)c1OC,4.93 µM,7.36 µM,21.1 µM
O=C(C[n+]1cc(-c2ccccc2)n2c1CCC2)N1c2ccccc2Sc2ccccc21,22.5 µM,> 100 µM,–
CCOC(=O)c1ccc(N/C=C2/CCCC(C)C2=O)cc1 (stereo not given),10.9 µM,> 100 µM,–
O=C(OCC#CCSc1nnc(-c2ccc([N+](=O)[O-])cc2)o1)c1cccs1,< 0.195 µM,1.3 µM,–
O=C(Nc1nnc(-c2ccccn2)o1)c1cccc(Cl)c1,5.25 µM,> 100 µM,> 40 µM
CCOC(=O)c1c(C)n(C)c2ccc(OC(C)C(=O)OC)cc12 (stereo not given),8.04 µM,14.4 µM,–
c1ccc(C2[C@H]3CN(CC4CCCCC4)[C@H](c4ccccc4)C34CC2(c2cccnc2)C4)cc1 (stereo not given in full),15 µM,23.4 µM,–
[O-][n+]1onc2c3cc(-c4ccccc4)nnc3ccc21,< 0.195 µM,0.443 µM,–
COc1ccc(OCCn2c(NC(=O)c3ccco3)nc3ccccc32)cc1,–,> 100 µM,33.2 µM
O=C(COc1ccc(Cl)cc1Cl)N1CCN(C/C=C/c2ccccc2)CC1,17 µM,21.6 µM,> 40 µM

SMILES,IC50,IC90,CC50
Cc1cccc(OCC(O)Cn2c(=N)n(CCN3CCCCC3)c3ccccc32)c1 (stereo not given),5.87 µM,6.69 µM,35.8 µM
CCOC(=O)N1CCC(N2CCCC(C(=O)c3ccc4cc(OC)ccc4c3)C2)CC1 (stereo not given),8.9 µM,25.1 µM,> 40 µM
CCn1c(CNc2ccccc2Cl)nnc1SCC(=O)OC1CCCCC1,1.63 µM,3.2 µM,–
N#CCC1c2ccccc2CCN1C(=O)Nc1ccc(C(F)(F)F)cc1 (stereo not given),5.9 µM,> 100 µM,–
COc1cccc(-c2nnc(NC(=O)c3ccccc3Br)o2)c1,3.79 µM,9.35 µM,> 40 µM
COc1ccc(NC(=O)c2ccc(OC(F)F)cc2)cc1Cl,20.7 µM,> 100 µM,–
COc1ccc(NS(=O)(=O)c2cc(NC(=O)[C@@H](NC(=O)c3ccccc3)C(C)C)ccc2C)cc1,–,–,23.3 µM
CC(C)c1c(O)nc(SCC(=O)Nc2ccc3c(c2)CCC3)[nH]c1=O,32.8 µM,> 100 µM,–
CCOC(=O)c1cnc2ccc(OCC)cc2c1NCc1ccccc1,15.7 µM,22.2 µM,> 40 µM
CC(C)COCC(CN(Cc1ccccc1)c1ccccc1)N1CCCC1 (stereo not given),14.8 µM,20.1 µM,> 40 µM
Cc1cc(NCCCn2ccnc2)n2nc(C)c(-c3ccc(Cl)cc3)c2n1,4.03 µM,5.75 µM,12.9 µM
COc1ccc(N=c2cc(-c3ccc(O)cc3)oc3ccccc23)cc1,5.8 µM,9.5 µM,34.3 µM
CCc1ccc(CCC(=O)Nc2ccc(OC)cc2)o1,35.9 µM,> 100 µM,–
CC(C)OC(=O)c1ccc(N)cc1,30.1 µM,> 100 µM,–
CNc1nc(-c2ccccn2)nnc1-c1ccccc1,8.5 µM,11.1 µM,11.3 µM
CC1CCCN(C(=O)C2CCC(CNc3c(N4CCCCC4)c(=O)c3=O)CC2)C1 (stereo not given),11.7 µM,> 100 µM,–
CCOC(=O)CSc1nnc(-c2ccc(Cl)cc2Cl)o1,< 0.391 µM,9.47 µM,–
COCCCN=C1NN=C(c2cc(C)n(Cc3ccccc3Cl)c2C)CS1,11.3 µM,12.1 µM,16.3 µM
COc1ccc(CNCc2cc3c(C(C)(C)C)nn(-c4ccccc4)c3[nH]c2=O)cc1,11.4 µM,13 µM,> 40 µM
CCOC(=O)Cc1ccc(NC(=O)c2ccc(C(C)(C)C)cc2)cc1,35.6 µM,> 100 µM,> 40 µM
Cc1cc(C)n(-c2nc(N(c3ccccc3)c3ccccc3)nc(-n3nc(C)cc3C)n2)n1,2.76 µM,10.4 µM,> 40 µM

SMILES,IC50,IC90,CC50
COc1ccc(NCN2C(=O)CCC2=O)cc1,–,> 100 µM,–
CCCC(=O)Nc1cccc(-c2nc3ccccc3c(=O)o2)c1,5.72 µM,12.1 µM,–
O/N=C/c1ccc(-c2cc(Cl)ccc2Cl)o1,–,> 100 µM,–
O=C(COc1ccc(Cl)cc1)Nc1ccc(Cc2ccncc2)cc1,5.95 µM,12.4 µM,–
CCOC(=O)C1=C(c2ccccc2)NC(N)=NC1c1ccc(OCc2ccc(Cl)cc2)c(OC)c1 (stereo not given),4.55 µM,5.57 µM,22.6 µM
CCCCCCn1c(=O)c(C(=O)Nc2nc(CC(=O)OCC)cs2)c(O)c2ccccc21,< 0.195 µM,< 0.195 µM,4.53 µM
Cc1cc(-c2c(C)[nH]n(-c3ccccc3)c2=O)n[nH]1,10.5 µM,> 100 µM,36.2 µM
Nc1ccc2c(c1)C(=O)C(=O)c1ccccc1-2,0.401 µM,13.5 µM,3.16 µM
CCOC(=O)CNC(=O)CSc1ncnc2c1nnn2-c1ccc(F)cc1,–,> 100 µM,–
Cc1cc(C)c(C2C3=C(Nc4c2c(C)nn4-c2ccccn2)c2ccccc2C3=O)c(C)c1 (stereo not given),5.63 µM,8.83 µM,> 40 µM
CC(=O)Nc1nc(-c2cc([N+](=O)[O-])cs2)cs1,< 0.195 µM,> 100 µM,–
COc1ccc(O)c(C(=O)CC(=O)c2ccccc2C)c1,17.2 µM,> 100 µM,17.1 µM
CCCc1cc(=O)[nH]c(SCC(=O)Nc2nc3ccc(OCC)cc3s2)n1,–,–,> 40 µM
CCOC(=O)c1cc(C)nc(Sc2ccc(C)cc2)c1C#N,12.7 µM,> 100 µM,> 40 µM
Cc1ccc(Oc2nc(-c3ccccn3)nc3ccccc23)cc1,2.56 µM,10.5 µM,22.4 µM
CCCOC(=O)c1ccc(NC(=O)/C=C/c2cccs2)cc1,4.12 µM,21.8 µM,–
Cc1ccccc1OCC(=O)Nc1nc2ccccc2[nH]1,4.82 µM,16.2 µM,–
Cc1nn(Cc2ccccc2Cl)c2sc(C(=O)NCc3ccc4c(c3)OCO4)cc12,5.45 µM,7.16 µM,–
Cc1nc2ccccn2c1C(=O)NCc1ccc2c(c1)OCO2,1.62 µM,7.83 µM,–
Cc1ccc(-c2ccc(/C=C/C(=O)c3ccccc3)o2)cc1,19.6 µM,> 100 µM,24.7 µM
COc1ccc(/C=C2\COc3ccccc3C2=O)cc1OC,9.44 µM,14.6 µM,29.2 µM

SMILES,IC50,IC90,CC50
COc1ccc(Br)cc1C(=O)Nc1ccccc1N1CCN(C(=O)c2ccccc2)CC1,16.7 µM,> 100 µM,> 40 µM
CCOC(=O)c1ccc(NC(=O)/C=C/c2cccs2)cc1,71.3 µM,> 100 µM,–
N=c1n(CCN2CCCCC2)c2ccccc2n1CC(=O)c1ccc(Cl)c(Cl)c1,8.28 µM,10.5 µM,19.8 µM
COc1c(Cl)cc(Cl)cc1/C=C/C(=O)c1ccc(NC(=O)c2cccs2)cc1,7.91 µM,16.4 µM,6.47 µM
OC(CNCc1ccco1)Cn1c2ccc(Br)cc2c2cc(Br)ccc21 (stereo not given),2.76 µM,3.11 µM,17.2 µM
CC1(C)Cc2c(C#N)c(N3CCN(C(=O)c4ccccc4)CC3)nc(Cc3ccccc3)c2CO1,10.5 µM,18.7 µM,> 40 µM
Cc1cc(OCc2nnc(SCC(=O)OC3CCCCC3)o2)ccc1Cl,0.372 µM,2.57 µM,–
COc1cnc(-c2ccccn2)nc1Oc1c(C)cccc1C,5.19 µM,14.7 µM,19.8 µM
COc1cccc(C2C(C(=O)Nc3nc4ccccc4s3)=C(C)NC3=C2C(=O)CC(C)(C)C3)c1OC (stereo not given),–,> 100 µM,> 40 µM
COC(=O)CCCC(=O)Nc1ccc(Cl)c(Cl)c1,23.1 µM,> 100 µM,–
O=C(c1ccccc1)C1CN(Cc2ccccc2)CCC1(O)c1ccccc1 (stereo not given),24.8 µM,28.2 µM,–
c1ccc(N2CCN(c3nc(-c4ccccn4)nc4ccccc34)CC2)cc1,0.924 µM,1.62 µM,25.9 µM
CC(=O)/C=C/c1ccc2ccccc2n1,5.65 µM,6.34 µM,16.1 µM
CCN(Cc1nc2ccccc2c(=O)[nH]1)Cc1nc2ccsc2c(=O)[nH]1,15.8 µM,> 100 µM,> 40 µM
CCOC(=O)c1ccc(NC(=O)C2C3CCC(C3)C2C(=O)O)cc1 (stereo not given),–,> 100 µM,–
Cc1ccc(-c2ccccc2NC(=O)CCl)o1,18.6 µM,> 100 µM,> 40 µM
O=C(Nc1ccc(N2CCCCC2)c(Cl)c1)c1ccc(N2CCOCC2)c([N+](=O)[O-])c1,40.2 µM,> 100 µM,30 µM
Cc1ccc(S(=O)(=O)NCCC(=O)Nc2ccc(C)c(Cl)c2)cc1C,19.8 µM,> 100 µM,> 40 µM
CCCC(=O)N1CCN(c2ccc(NC(=O)c3ccc([N+](=O)[O-])o3)cc2)CC1,1 µM,2.22 µM,3.1 µM
O=C1CSc2ccc(C(=O)Nc3cccc(S(=O)(=O)Nc4ccc(Br)cc4)c3)cc2N1,7.03 µM,11.9 µM,16.5 µM
